Measurements as given in paper PMC3994669 (Cancer cell, 2014).
Read-outs that look alike come from different tables or passages of the source. *1 amine or outer side, *2 acyl side, *3 side chain or, on linkers, in order; H or OH if unused. Where a SMILES comes first, the peptide text is derived from it. Bridges are numbered along the chain shown (N, C = ends). Roman numbers before positions name the chains, in order. [ ]: non-standard residue; d: D form. Actinocin(9to1) = Cc1c2oc3c(C)ccc(C(=O)[*:1])c3nc-2c(C(=O)[*:2])c(N)c1=O; NMeV = CN[C@H](C(=O)O)C(C)C; Sar = CNCC(=O)O

How the values were obtained:
HepG2 = assay: Dose-response proliferation assay on HepG2 control cells; assay type: cell-based; conditions: Homo sapiens, HepG2, read-out: EC50 HepG2
BJ = assay: Dose-response proliferation assay on BJ control fibroblasts; assay type: cell-based; conditions: Homo sapiens, read-out: EC50 BJ
Trp53-null neurospheres = assay: Dose-response proliferation assay on control Trp53-null neurospheres; assay type: cell-based, mouse; conditions: for EC50: Mus musculus, 72 h, read-out: EC50 Trp53-null; for efficacy against Trp53-null: 72 hr treatment
[1] = test system: Myc1 mouse G3 MB neurospheres; assay: Dose-response proliferation assay; assay type: cell-based; conditions: for EC50: Mus musculus, 72 h, read-out: EC50 Myc1; for efficacy against Myc1: 72 hr treatment
H3K27me3 = H3K27me3 immunoblotting of Myc1 cell lysates; assay type: cell-based, mouse; conditions: Myc1, 72 hr; 0.5 μM decitabine, 40 nM pemetrexed
Myc1 neurospheres = assay: In vitro wash-out experiments on Myc1; assay type: cell-based; conditions: Mus musculus
[2] = test system: four additional mouse G3 MB lines; assay: Dose-response on four additional mouse G3 MB lines; assay type: cell-based; conditions: four independently derived mouse G3 MB lines
[3] = test system: human neural stem cells H9; assay: Cell viability of human neural stem cells H9; assay type: cell-based; conditions: H9, 72 h, read-out: EC50 H9 cells
[4] = assay type: in vivo; conditions: murine plasma, single IV injection pemetrexed 200 mg/kg, gemcitabine 60 mg/kg
[5] = test system: TB-12-5950 G3 MB PDX neurospheres; assay: Cell viability of G3 MB PDX TB-12-5950 neurospheres; assay type: cell-based; conditions: Homo sapiens, 72 h, read-out: EC50 TB-12-5950
Myc1 mouse G3 MB = assay: Survival of mice with cortical Myc1 G3 MB implants; assay type: in vivo
Myc2 mouse G3 MB = assay: Survival of mice with Myc2 G3 MB implants; conditions: treatment at days 4 and 11; vehicle 11 days
SHH MB-derived line = assay: Dose-response on SHH MB-derived line; assay type: cell-based, mouse
[6] = mouse, in vivo
mouse G3 MB tumor cells = assay: Cell death; assay type: cell-based; conditions: for cell death by Annexin V staining: tumor cells in vitro
[7] = test system: OA-2012-1 G3 MB PDX neurospheres; assay: Cell viability of G3 MB PDX OA-2012-1 neurospheres; assay type: cell-based; conditions: Homo sapiens, 72 h, read-out: EC50 OA-2012-1
[8] = read-out: EC50 wash-out, 1 hr drug exposure, read 72 hr after
[9] = read-out: EC50 wash-out, 10 hr drug exposure, read 72 hr after
[10] = read-out: EC50 wash-out, 24 hr drug exposure, read 72 hr after

| EC50 (HepG2) | Compound | EC50 (Trp53-null neurospheres) | EC50 [1] | also measured |
| --- | --- | --- | --- | --- |
| 11 µM | COc1cc(NS(C)(=O)=O)ccc1Nc1c2ccccc2nc2ccccc12 [Amsacrine] | 0.55 µM | 0.16 µM | EC50 (BJ): 13 µM |
|  | N=c1ccn2c(n1)O[C@H]1[C@H](O)[C@@H](CO)O[C@H]12 [Ancitabine] | 0.55 µM | 0.031 µM |  |
| 0.026 µM | CC(C)C[C@H](NC(=O)[C@H](Cc1ccccc1)NC(=O)c1cnccn1)B(O)O [Bortezomib] | 0.0027 µM | 0.0063 µM | EC50 (BJ): 0.023 µM |
| 0.92 µM | COCc1c(C(C)C)nc(C(C)C)c(/C=C/[C@@H](O)C[C@@H](O)CC(=O)O)c1-c1ccc(F)cc1 [Cerivastatin] | 2.5 µM | 0.77 µM |  |
| 3.3 µM | Nc1nc(Cl)nc2c1ncn2[C@H]1C[C@H](O)[C@@H](CO)O1 [Cladrabine] | 0.25 µM | 0.0043 µM | EC50 (BJ): 1.4 µM |
|  | Nc1nc(Cl)nc2c1ncn2[C@@H]1O[C@H](CO)[C@@H](O)[C@@H]1F [Clofarabine] | 0.34 µM | 0.15 µM |  |
|  | CC1(C)N=C(N)N=C(N)N1c1ccc(Cl)cc1 [Cycloguanil] | 0.18 µM | 0.11 µM |  |
| 0.078 µM | Nc1ccn([C@@H]2O[C@H](CO)[C@@H](O)[C@@H]2O)c(=O)n1 [Cytarabine] | 0.2 µM | 0.083 µM |  |
|  | Nc1ncn([C@H]2C[C@H](O)[C@@H](CO)O2)c(=O)n1 [Decitabine] | 0.032 µM | 1.3 µM | H3K27me3 levels (H3K27me3): significantly decreased; efficacy against Trp53-null (Trp53-null neurospheres): ≤ 35%; efficacy against Myc1 [1]: 100%; EC50 (Myc1 neurospheres; [8]): ~2.4 µM; EC50 (Myc1 neurospheres; [9]): ~0.92 µM; EC50 (Myc1 neurospheres; [10]): ~0.5 µM; potency and efficacy compared to Myc1 [2]: comparable potency and efficacy |
| 0.58 µM | COc1cccc2c1C(=O)c1c(O)c3c(c(O)c1C2=O)C[C@@](O)(C(=O)CO)C[C@@H]3O[C@H]1C[C@H](N)[C@H](O)[C@H](C)O1 [Doxorubicin] | 0.11 µM | 0.028 µM | EC50 (BJ): 0.14 µM |
|  | COc1cc([C@@H]2c3cc4c(cc3[C@@H](O[C@@H]3O[C@@H]5CO[C@@H](C)O[C@H]5[C@H](O)[C@H]3O)[C@H]3COC(=O)[C@H]23)OCO4)cc(OC)c1O [Etoposide] | 0.046 µM | 0.24 µM |  |
|  | O=c1[nH]c(=O)n([C@H]2C[C@H](O)[C@@H](CO)O2)cc1F [Floxuridine] | 0.0001 µM | 0.0016 µM |  |
|  | O=c1[nH]cc(F)c(=O)[nH]1 [Fluorouracil] | 0.22 µM | 0.36 µM |  |
|  | CC(C)n1c(/C=C/C(O)CC(O)CC(=O)O)c(-c2ccc(F)cc2)c2ccccc21 (centres unmarked) [Fluvastatin] |  | 4.5 µM |  |
|  | Nc1ccn([C@@H]2O[C@H](CO)[C@@H](O)C2(F)F)c(=O)n1 [Gemcitabine] | 0.00032 µM | 0.0021 µM | EC50 [3]: 0.0015 µM; clearance relative to previously published reports [4]: around 2 fold; efficacy against Trp53-null (Trp53-null neurospheres): ≤ 63%; efficacy against Myc1 [1]: 100%; EC50 [5]: 0.0051 µM; EC50 (Myc1 neurospheres; [8]): 0.044 µM; EC50 (Myc1 neurospheres; [9]): 0.013 µM; EC50 (Myc1 neurospheres; [10]): 0.0038 µM; increase in median survival (Myc1 mouse G3 MB; two doses of gemcitabine 60 mg/kg at days 2 and 9, vs vehicle): 11 days; potency and efficacy compared to Myc1 [2]: comparable potency and efficacy; median survival (Myc2 mouse G3 MB): 26 days; fold less sensitive compared to Myc1 (SHH MB-derived line): greater than 5 fold; tolerability [6]: well tolerated; histone 2AX (H2AX) foci (mouse G3 MB tumor cells; 1 hr treatment at 5 nM): induced histone 2AX (H2AX) foci; cell death by Annexin V staining (mouse G3 MB tumor cells): induced cell death; EC50 [7]: 0.011 µM |
| 13 µM | CC[C@H](C)C(=O)O[C@H]1C[C@@H](C)C=C2C=C[C@H](C)[C@H](CC[C@@H]3C[C@@H](O)CC(=O)O3)[C@H]21 [Lovastatin] | 2.1 µM | 4 µM |  |
|  | CN(Cc1cnc2nc(N)nc(N)c2n1)c1ccc(C(=O)N[C@@H](CCC(=O)O)C(=O)O)cc1 [Methotrexate] | 0.15 µM | 0.0052 µM |  |
|  | Nc1nc2[nH]cc(CCc3ccc(C(=O)N[C@@H](CCC(=O)O)C(=O)O)cc3)c2c(=O)[nH]1 [Pemetrexed] | 15 µM | 0.035 µM | EC50 [3]: 0.29 µM; clearance relative to previously published reports [4]: around 2 fold; H3K27me3 levels (H3K27me3): no effect; EC50 [5]: 0.16 µM; EC50 (Myc1 neurospheres; [8]): 1.2 µM; EC50 (Myc1 neurospheres; [9]): 0.5 µM; EC50 (Myc1 neurospheres; [10]): 0.18 µM; increase in median survival (Myc1 mouse G3 MB; one dose of pemetrexed 200 mg/kg at day 3, vs vehicle): 3 days; increase in median survival (Myc1 mouse G3 MB; two doses of pemetrexed 200 mg/kg at days 3 and 10, vs vehicle): 7 days; potency and efficacy compared to Myc1 [2]: comparable potency and efficacy; median survival (Myc2 mouse G3 MB): 28 days; sensitivity compared to Myc1 (SHH MB-derived line): as sensitive to pemetrexed as Myc1; tolerability [6]: well tolerated; cell death by Annexin V staining (mouse G3 MB tumor cells): induced cell death; EC50 [7]: 0.1 µM |
| 5 µM | O=C(O)C[C@H](O)C[C@H](O)/C=C/c1c(C2CC2)nc2ccccc2c1-c1ccc(F)cc1 [Pitavastatin] |  | 3.5 µM |  |
|  | CCc1nc(N)nc(N)c1-c1ccc(Cl)cc1 [Pyrimethamine] | 0.87 µM | 4.9 µM |  |
|  | Cc1nc2ccc(CN(C)c3ccc(C(=O)N[C@@H](CCC(=O)O)C(=O)O)s3)cc2c(=O)[nH]1 [Raltitrexed] | 0.34 µM | 0.003 µM |  |
|  | CC(C)c1nc(N(C)S(C)(=O)=O)nc(-c2ccc(F)cc2)c1/C=C/[C@@H](O)C[C@@H](O)CC(=O)O [Rosuvastatin] |  | 2.6 µM |  |
| 9.4 µM | CCC(C)(C)C(=O)O[C@H]1C[C@@H](C)C=C2C=C[C@H](C)[C@H](CC[C@@H]3C[C@@H](O)CC(=O)O3)[C@H]21 [Simvastatin] |  | 3 µM | EC50 (BJ): 5.8 µM |
| 11 µM | Nc1nc2nc[nH]c2c(=S)[nH]1 [Thioguanine] | 0.8 µM | 0.44 µM |  |
| 0.09 µM | CC[C@@]1(O)C(=O)OCc2c1cc1n(c2=O)Cc2cc3c(CN(C)C)c(O)ccc3nc2-1 [Topotecan] | 0.18 µM | 0.075 µM |  |
|  | O=c1[nH]c(=O)n([C@H]2C[C@H](O)[C@@H](CO)O2)cc1C(F)(F)F [Trifluridine] | 0.0029 µM | 0.038 µM |  |
|  | COc1cc(NCc2ccc3nc(N)nc(N)c3c2C)cc(OC)c1OC [Trimetrexate] | 0.0047 µM | 0.035 µM |  |
|  | CC[C@]1(O)C[C@@H]2CN(CCc3c([nH]c4ccccc34)[C@@](C(=O)OC)(c3cc4c(cc3OC)N(C)[C@H]3[C@@](O)(C(=O)OC)[C@H](OC(C)=O)[C@]5(CC)C=CCN6CC[C@]43[C@@H]65)C2)C1 [Vinblastine] | 0.015 µM | 0.012 µM |  |
|  | CC[C@]1(O)C[C@H]2CN(CCc3c([nH]c4ccccc34)[C@@](C(=O)OC)(c3cc4c(cc3OC)N(C=O)[C@H]3[C@@](O)(C(=O)OC)[C@H](OC(C)=O)[C@]5(CC)C=CCN6CC[C@]43[C@@H]65)C2)C1 [Vincristine] | 0.01 µM | 0.0094 µM | toxicity in mice [6]: intolerable toxicity |

| Compound | EC50 (HepG2) | EC50 (Trp53-null neurospheres) | EC50 [1] | also measured |
| --- | --- | --- | --- | --- |
| Cc1c2oc3c(C)ccc(C(=O)N[C@@H]4C(=O)N[C@H](C(C)C)C(=O)N5CCC[C@H]5C(=O)N(C)CC(=O)N(C)[C@@H](C(C)C)C(=O)O[C@@H]4C)c3nc-2c(C(=O)N[C@@H]2C(=O)N[C@H](C(C)C)C(=O)N3CCC[C@H]3C(=O)N(C)CC(=O)N(C)[C@@H](C(C)C)C(=O)O[C@@H]2C)c(N)c1=O [Dactinomycin] (I: T[dV]P[Sar][NMeV] / II: T[dV]P[Sar][NMeV]; ester I:1-I:C, II:1-II:C; linker I:N-II:N via Actinocin(9to1)) | 0.0084 µM | 0.0024 µM | 0.0009 µM |  |
| COc1cccc2c1C(=O)c1c(O)c3c(c(O)c1C2=O)C[C@@](O)(C(C)=O)C[C@@H]3O[C@H]1C[C@H](N)[C@H](O)[C@H](C)O1 [Daunorubicin] | 1.7 µM | 0.036 µM | 0.0075 µM | EC50 (BJ): 0.1 µM |
| COC(=O)Nc1nc2ccc(C(=O)c3cccs3)cc2[nH]1 [Nocodazole] | 0.015 µM | 0.094 µM | 0.11 µM |  |
| COc1cc([C@@H]2c3cc4c(cc3[C@H](O)[C@H]3COC(=O)[C@H]23)OCO4)cc(OC)c1OC [Podofilox] | 0.0039 µM | 0.0074 µM | 0.0064 µM |  |
